Series [1] is described as follows: Determination of logD7.4 (n-octanol/PBS). In kind it is physicochemical. The settings on record: n-octanol/PBS pH 7.4; mean ± SD, three independent experiments. How it is done: For the determination of the octanol–water coefficient, an aliquot of the radiotracer was added to PBS (500 µL, pH 7.4) and n-octanol (500 µL) in an Eppendorf tube. The mixture was vortexed and subsequently centrifuged, each for 1 min. Three samples (each 100 µL) were taken from both the PBS and the n-octanol layer and measured using a γ-counter (Wallac Wizard, PerkinElmer, Waltham, MA, USA). The logD7.4 was expressed as log(cpmoctanol/cpmPBS) and reported as mean ± SD. The determination of logD7.4 was performed in three independent experiments, each performed in triplicate.

Series [2] is described as follows: Stability in human serum and plasma in vitro (radio-HPLC). In kind it is in vitro ADME. The settings on record: 37 °C. The protocol: An aliquot of the formulated tracer solution (40 µL containing approx. 10 MBq in 0.9% NaCl) was incubated with 200 µL of human plasma (Hölzel Diagnostika Handels GmbH, from CosmoBio USA, Carlsbad, CA, USA) or human serum (Biochrom GmbH, Merck KGaA, Darmstadt, Germany), respectively, at 37 °C. After various time points (5–120 min), aliquots (30 µL) were taken and quenched in methanol or 10% TFA (30 µL). The samples were centrifuged for 3 min, and subsequently the supernatants were analyzed by radio-HPLC (Chromolith RP-18e, 100 × 4.6 mm, 10–100% acetonitrile (with 0.1% TFA) in water (with 0.1% TFA) over 5 min, 4 mL/min).

In the next series the test system is ER+ MCF-7 cells. Nature of the series: Cellular uptake assay in ER+ cells. In kind it is cell-based, human. The protocol:
One day prior to the experiment, MCF-7 and MDA-MB-231 cells were seeded in 24-well plates (350,000 cells/well). The cells were washed once with cell medium. The cells were incubated with the respective radiotracer in cell medium (510 µL) for 10, 20, 30, 60, 90, 120 min at 37 °C in the absence and presence of estradiol (E2, final concentration of 72 µM). After incubation, the plates were set on ice and washed with ice-cold PBS twice, following cell lysis and detachment with NaOH (0.1 M, 750 µL, 37 °C). The cells were transferred to counting tubes, and the radioactivity was measured using a γ-counter (Wallac Wizard, PerkinElmer, Waltham, MA, USA). The protein concentration of each well was determined in duplicate using Bradford reagent (Bio-Rad Laboratories GmbH, Feldkirchen, Germany). The cellular uptake assay was performed in 2–4 independent experiments, each performed in quadruplicate for each time point.

Series [3] has as its system T47D (ER+) and MDA-MB-231 (ER-) tumor-bearing nude mice. Nature of the series: Biodistribution in tumor-bearing nude mice. The class given is in vivo. How it is done:
Female NMRI nude mice (Crl:NMRI-Foxn1^nu) were purchased from Charles River (Charles River Laboratories Inc., Wilmington, MA, USA) at the age of four weeks and kept in groups of four to five animals in individually ventilated cages in a twelve hours dark/light cycle, with unlimited access to water and standard chow. At the age of nine to ten weeks, one 17β-estradiol pellet per animal (0.72 mg per pellet, 3 mm diameter) with a 60-day release time (Innovative Research of America, Sarasota, FL, USA) was subcutaneously implanted on the back under isoflurane anesthesia. After three days, approximately 2–3 × 10^6 MCF-7, T47D or MDA-MB-231 tumor cells (in 50 µL PBS) were mixed with Matrigel (50 µL, BD Biosciences, Becton, Dickinson and Company, Franklin Lakes, NJ, USA) and injected subcutaneously to the back of the mice. Tumor diameters and weight of the animals were recorded five times a week. Biodistribution or imaging studies were performed three–four weeks after the inoculation of the cells.
For biodistribution experiments, nude mice bearing T47D and MDA-MB-231 tumors (n = 3, per group) were injected with ^18F-TA-Glyco-EE (2–4 MBq) under isoflurane anesthesia. After 30, 60 or 90 min, the mice were sacrificed by cervical dislocation. Blood, as well as organs and tissue from the lung, liver, kidneys, heart, spleen, brain, muscle, femur and tumors, were harvested and measured for radioactivity in the γ-counter (Wallac Wizard, PerkinElmer, Waltham, MA, USA). The samples were weighed, and the radioactivity of each tissue sample was calculated as a percentage of the total injected dose per gram tissue (%ID/g).

The next series relates to ER+ MCF-7 tumor slices. Nature of the series: In vitro autoradiography of MCF-7 tumor slices. The class given is binding, human. The settings on record: 60 min, room temperature, with or without E2 (72 µM). The protocol: (§1) MCF-7, MDA-MB231 and T47D tumors grown in nude mice were collected and frozen in a hexane/dry ice bath (−70 °C). Tumor slices (14 µm) were prepared on a cryostat microtome HM 500 O (Microm, Walldorf, Germany), thaw-mounted on HistoBond® adhesive glass slides (Marienfeld, Lauda-Königshofen, Germany) and stored at −80 °C. For in vitro autoradiography studies, the tumor tissue sections were thawed and pre-incubated in incubation buffer (50 mM Tris HCl, 5 mM MgCl2, 0.2% bovine serum albumin (BSA), pH 7.4) at room temperature for 15 min. Then, the sections were transferred to incubation buffer containing ^18F-TA-Glyco-EE (3–5 MBq) in a total volume of 70 mL. For the determination of non-specific binding, separate sections were incubated with ^18F-TA-Glyco-EE in the presence of E2 (72 µM). After an incubation time of 60 min, the sections were washed three times with incubation buffer, followed by a short dip in ice-cold distilled water. The slices were carefully dried in a stream of warm air and finally placed on a phosphor imager screen (Fuji Imaging Plate BAS-IP SR 2025 E) overnight prior to readout (30 µm resolution) using the HD-CR-35 Bio scanner (Elysia-Raytest, Straubenhardt, Germany). […] Regions of interest were analyzed from 3–4 tumor slices from the MCF-7, MDA-MB231 and T47D tumors, and mean values of the intensity per area were calculated.

Another series concerns ER+ T47D tumor slices. Nature of the series: In vitro autoradiography of T47D tumor slices. The class given is binding, human. The settings on record: 60 min, room temperature, with or without E2 (72 µM). The protocol: as §1
The test system of series [4] is ER- MDA-MB-231 tumor slices. Nature of the series: In vitro autoradiography of MDA-MB-231 tumor slices. In kind it is binding, human. The settings on record: 60 min, room temperature, with or without E2 (72 µM). How it is done:
as §1

The molecule `CC(=O)OC1C(C[18F])OC(n2cc(C3(O)CCC4C5CCc6cc(O)ccc6C5CCC43C)nn2)C(OC(C)=O)C1OC(C)=O` (centres unmarked) [^18F-TA-Glyco-EE] yielded a logD7.4 in series [1] of 2.3 ± 0.1. The “Stability in human serum and plasma (in words)” value in series [2] (over 120 min, radio-HPLC) was “rapidly deacetylated in serum and plasma”. Also, the “Stability in Human Serum or Plasma” value in series [2] (after 30 min, same for serum and plasma, deacetylation observed) is on record as 0% after 30 min ^2,5. Further, in the series on ER+ MCF-7 cells (ER+ MCF-7 cells), the “Cellular uptake relative to ^18F-PEG-EE and ^18F-Glyco-EE” value is reported as 10 fold. The “Cellular uptake in MCF-7 cells” value with ER+ MCF-7 cells (after 60 min, 37 °C, absence of E2) turned out to be 270 %/mg. In series [3] (30 min p.i.), the “Uptake in MDA-MB-231 tumors” value was found to be 0.9 %ID/g, the “Uptake in T47D tumors” value was 1.0 %ID/g, the Uptake in intestine worked out at 10 %ID/g and the Uptake in liver is reported as 13 %ID/g. In addition, in series [3] (60 min and 90 min p.i., multiple t-test), the “Tumor uptake ER+ T47D versus ER- MDA-MB-231” value is “statistically significant differences”. Further, the Uptake in liver in series [3] (90 min p.i.) is given as 1.2 %ID/g. In series [3] (all time points (30, 60, 90 min p.i.)), the “Uptake in blood and all other non-target organs” value is listed as “low”. In addition, the “Uptake in T47D or MDA-MB-231 tumors” value in series [3] (as summarised in the discussion) is reported as less than 1 %ID/g. Further, the “Uptake in liver and intestine” value in series [3] (decreasing over 90 min) is given as “less than 3 %ID/g”. For the same molecule, in the series on ER+ MCF-7 tumor slices, the “Binding to MCF-7 tumor sections (autoradiography)” value is given as “high specific binding”. Further, the “Binding to T47D tumor sections (autoradiography)” value with ER+ T47D tumor slices is reported as “high specific binding”. Further, the “Binding to MDA-MB-231 tumor sections (autoradiography)” value in series [4] is “negligible binding”.
